In US20230233541A1, “SUBSTITUTED BENZAMIDES AS MODULATORS OF TREX1” (Constellation Pharmaceuticals, Inc., priority 2020, published 2023):
pEC50: −log10 of the molar value.

How the values were obtained:
[1] = molecular target: T1, full length human TREX1 (Homo sapiens, UniProt Q9NSU2); assay: TREX1 Biochemical Assay (fluorescence assay, degradation of dsDNA substrate); details: 150 pM TREX1, 60 nM dsDNA substrate, 25 minutes at room temperature; read-out: hTREX1 EC50
T1 construct: N-terminally His-Tev tagged full length human TREX1; His-Tev (His tag with TEV protease site) (N); made in house; host or cells: E. coli
T1 sequence (Q9NSU2 1-314): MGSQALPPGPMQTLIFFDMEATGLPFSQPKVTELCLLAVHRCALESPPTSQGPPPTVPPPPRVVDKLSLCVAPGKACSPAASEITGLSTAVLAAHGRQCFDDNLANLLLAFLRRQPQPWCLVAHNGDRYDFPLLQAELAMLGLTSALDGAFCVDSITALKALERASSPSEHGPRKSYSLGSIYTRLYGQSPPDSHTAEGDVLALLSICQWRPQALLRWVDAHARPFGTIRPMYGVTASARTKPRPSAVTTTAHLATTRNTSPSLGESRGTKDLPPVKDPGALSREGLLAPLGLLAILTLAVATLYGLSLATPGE
Experimental: Degradation of the dsDNA liberates free fluorophore to produce a fluorescent signal. Specifically, 7.5 μL of N-terminally His-Tev tagged full length human TREX1 (expressed in E. coli and purified in house) in reaction buffer (50 mM Tris (pH 7.4), 150 mM NaCl, 2 mM DTT, 0.1 mg/mL BSA, 0.01% (v/v) Tween-20 and 100 mM MgCl2) was added to a 384-well Black ProxiPlate Plus (Perkin Elmer) which already contained compound (150 nL) at varying concentrations as a 10-point dose-response in DMSO. To this was added 7.5 μL of dsDNA substrate (Strand A: 5′ TEX615/GCT AGG CAG 3′; Strand B: 5′ CTG CCT AGC/IAbRQSp (Integrated DNA Technologies)) in reaction buffer. Final concentrations were 150 pM TREX1, 60 nM dsDNA substrate in reaction buffer with 1.0% DMSO (v/v). After 25 minutes at room temperature, reactions were quenched by the addition of 5 μL of stop buffer (same as reaction buffer plus 200 mM EDTA). Final concentrations in the quenched reaction were 112.5 pM TREX1, 45 nM DNA and 50 mM EDTA in a volume of 20 μL. After a 5-minute incubation at room temperature, plates were read in a laser sourced Envision (Perkin-Elmer), measuring fluorescence at 615 nm following excitation w/570 nm light. IC50 values were calculated by comparing the measured fluorescence at 615 nm ratio relative to control wells pre-quenched w/stop buffer (100% inhibition) and no inhibitor (0% inhibition) controls as using non-linear least square four parameter fits and either Genedata or GraphPad Prism (GraphPad Software, Inc.).

[2] = molecular target: T2, human TREX2 (residues M44-A279) (Homo sapiens, UniProt Q9BQ50); assay: TREX2 Biochemical Assay (fluorescence assay, degradation of dsDNA substrate); details: 2.5 nM TREX2, 60 nM dsDNA substrate, 25 minutes at room temperature; read-out: hTREX2 EC50
T2 construct: human TREX2 (residues M44-A279, expressed in E. coli); His-Tev (His tag with TEV protease site) (N); made in house; host or cells: E. coli
T2 sequence (Q9BQ50 44-279 isoform Q9BQ50-1): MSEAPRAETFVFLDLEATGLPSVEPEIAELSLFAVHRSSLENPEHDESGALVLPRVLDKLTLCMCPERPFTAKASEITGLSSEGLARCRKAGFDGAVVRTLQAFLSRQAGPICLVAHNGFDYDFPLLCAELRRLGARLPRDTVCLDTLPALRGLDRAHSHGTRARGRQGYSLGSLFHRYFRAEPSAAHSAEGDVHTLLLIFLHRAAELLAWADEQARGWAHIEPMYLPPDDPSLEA
Experimental: Degradation of the dsDNA liberates free fluorophore to produce a fluorescent signal. Specifically, 7.5 μL of N-terminally His-Tev tagged human TREX2 (residues M44-A279, expressed in E. coli and purified in house) in reaction buffer (50 mM Tris (pH 7.4), 150 mM NaCl, 2 mM DTT, 0.1 mg/mL BSA, 0.01% (v/v) Tween-20 and 100 mM MgCl2) was added to a 384-well Black ProxiPlate Plus (Perkin Elmer) which already contained compound (150 nL) at varying concentrations as a 10-point dose-response in DMSO. To this was added 7.5 μL of dsDNA substrate (Strand A: 5′ TEX615/GCT AGG CAG 3′; Strand B: 5′ CTG CCT AGC/IAbRQSp (IDT)) in reaction buffer. Final concentrations were 2.5 nM TREX2, 60 nM dsDNA substrate in reaction buffer with 1.0% DMSO (v/v). After 25 minutes at room temperature, reactions were quenched by the addition of 5 μL of stop buffer (same as reaction buffer plus 200 mM EDTA). Final concentrations in the quenched reaction mixture were […] TREX2, 45 nM DNA and 50 mM EDTA in a volume of 20 μL. After a 5-minute incubation at room temperature, plates were read in a laser sourced Envision (Perkin-Elmer), measuring fluorescence at 615 nm following excitation w/570 nm light. IC50 values were calculated by comparing the measured fluorescence at 615 nm ratio relative to control wells pre-quenched w/stop buffer (100% inhibition) and no inhibitor (0% inhibition) controls as using non-linear least square four parameter fits and either Genedata or GraphPad Prism (GraphPad Software, Inc.).

SMILES	pEC50 [1]	pEC50 [2]
O=C(c1ccccc1F)N(Cc1cccnc1)Cc1cc(Cl)cc(Cl)c1 [Compound 37]	< 5.00	< 4.00
O=C(c1ccc(F)c(Br)c1)N(Cc1cccnc1)Cc1cc(Cl)cc(Cl)c1 [Compound 38]	< 5.00	< 4.00
O=C(c1ccc(Oc2ccc(F)cc2)cc1)N(Cc1cccnc1)Cc1ccc(Cl)cc1Cl [Compound 39]	< 5.00	< 4.00
O=C(c1cc(Br)c(O)c(Br)c1)N(Cc1cccnc1)Cc1ccc(Cl)cc1Cl [Compound 40]	< 5.00	< 4.00
COc1cc(C(=O)N(Cc2cccnc2)Cc2ccc(Cl)cc2Cl)cc(Br)c1O [Compound 41]	< 5.00	< 4.00
O=C(c1ccccc1N1CCCCC1)N(Cc1cccnc1)Cc1ccc(Cl)cc1Cl [Compound 42]	< 5.00	< 4.00
O=C(c1cccc(-c2ccccc2)c1)N(Cc1cccnc1)Cc1ccc(Cl)cc1Cl [Compound 43]	< 5.00	< 4.00
O=C(c1ccccc1Oc1ccccc1)N(Cc1cccnc1)Cc1ccc(Cl)cc1Cl [Compound 44]	< 5.00	< 4.00
O=C(c1ccc(Cl)cc1O)N(Cc1cccnc1)Cc1cc(Cl)cc(Cl)c1 [Compound 45]	< 5.00	< 4.00
O=C(c1ccccc1N1CCCCC1)N(Cc1cccnc1)Cc1cc(Cl)cc(Cl)c1 [Compound 46]	< 5.00	< 4.00
COc1cc(C(=O)N(Cc2cccnc2)Cc2cc(Cl)cc(Cl)c2)cc(Br)c1OC [Compound 47]	< 5.00	< 4.00
O=C(c1ccc(O)cc1)N(Cc1cccnc1)Cc1cc(Cl)cc(Cl)c1 [Compound 48]	< 5.00	< 4.00
O=C(c1cc(Cl)c(O)c(Cl)c1)N(Cc1cccnc1)Cc1cc(Cl)cc(Cl)c1 [Compound 49]	< 5.00	< 4.00
COc1cc(C(=O)N(Cc2cccnc2)Cc2cc(Cl)cc(Cl)c2)ccc1F [Compound 50]	< 5.00	< 4.00
CC(C)c1ccc(C(=O)N(Cc2cccnc2)Cc2cc(Cl)cc(Cl)c2)cc1 [Compound 51]	< 5.00	< 4.00
COc1cc(Br)cc(C(=O)N(Cc2cccnc2)Cc2cc(Cl)cc(Cl)c2)c1 [Compound 52]	< 5.00	< 4.00
O=C(c1cc(Br)c(O)c(Br)c1)N(Cc1cccnc1)Cc1cc(Cl)cc(Cl)c1 [Compound 53]	< 5.00	4.00 to 5.00
CC(C)Oc1ccc(C(=O)N(Cc2cccnc2)Cc2cc(Cl)cc(Cl)c2)cc1 [Compound 54]	< 5.00	< 4.00
O=C(c1ccccc1Oc1ccccc1)N(Cc1cccnc1)Cc1cc(Cl)cc(Cl)c1 [Compound 55]	< 5.00	< 4.00
O=C(c1cccc(-c2ccccc2)c1)N(Cc1cccnc1)Cc1cc(Cl)cc(Cl)c1 [Compound 56]	< 5.00	< 4.00
O=C(c1ccc(O)c(F)c1)N(Cc1cccnc1)Cc1cc(Cl)cc(Cl)c1 [Compound 57]	< 5.00	< 4.00
O=C(c1ccc(-c2ccccc2)cc1)N(Cc1cccnc1)Cc1cc(Cl)cc(Cl)c1 [Compound 58]	< 5.00	< 4.00
O=C(c1ccc(Oc2ccc(Cl)cc2)cc1)N(Cc1cccnc1)Cc1cc(Cl)cc(Cl)c1 [Compound 59]	< 5.00	< 4.00

SMILES	pEC50 [1]	pEC50 [2]
O=C(c1ccc(CO)cc1F)N(Cc1cccnc1)Cc1cc(Cl)cc(Cl)c1 [Compound 60]	< 5.00	< 4.00
CC(C)(C)c1ccc(C(=O)N(Cc2cccnc2)Cc2cc(Cl)cc(Cl)c2)cc1 [Compound 61]	< 5.00	< 4.00
COc1cc(C(=O)N(Cc2cccnc2)Cc2cc(Cl)cc(Cl)c2)cc(Br)c1O [Compound 62]	< 5.00	< 4.00
O=C(c1ccc(Cl)cc1Br)N(Cc1cccnc1)Cc1cc(Cl)cc(Cl)c1 [Compound 63]	< 5.00	< 4.00
O=C(c1ccc(CO)cc1)N(Cc1cccnc1)Cc1cc(Cl)cc(Cl)c1 [Compound 64]	< 5.00	< 4.00
O=C(c1ccc(F)c(Cl)c1)N(Cc1cccnc1)Cc1cc(Cl)cc(Cl)c1 [Compound 65]	5.00 to 6.00	< 4.00
O=C(c1cccc(Oc2ccccc2)c1)N(Cc1cccnc1)Cc1cc(Cl)cc(Cl)c1 [Compound 66]	< 5.00	< 4.00
COc1cc(C(=O)N(Cc2cccnc2)Cc2cc(Cl)cc(Cl)c2)cc(Cl)c1O [Compound 67]	< 5.00	< 4.00
Cc1cc(C(=O)N(Cc2cccnc2)Cc2cc(Cl)cc(Cl)c2)cc(C)c1O [Compound 69]	< 5.00	< 4.00
O=C(c1ccc(Br)cc1Cl)N(Cc1cccnc1)Cc1cc(Cl)cc(Cl)c1 [Compound 70]	< 5.00	< 4.00
O=C(c1ccc(Oc2ccccc2)cc1)N(Cc1cccnc1)Cc1cc(Cl)cc(Cl)c1 [Compound 71]	< 5.00	< 4.00
O=C(c1ccc(O)c(C(F)(F)F)c1)N(Cc1cccnc1)Cc1cc(Cl)cc(Cl)c1 [Compound 72]	< 5.00	< 4.00
O=C(c1ccc(O)c(Br)c1)N(Cc1cccnc1)Cc1cc(Cl)cc(Cl)c1 [Compound 73]	< 5.00	< 4.00
O=C(c1ccc(Oc2ccc(F)cc2)cc1)N(Cc1cccnc1)Cc1cc(Cl)cc(Cl)c1 [Compound 74]	< 5.00	< 4.00
O=C(c1ccc(Cl)c(Cl)c1)N(Cc1cccnc1)Cc1cc(Cl)cc(Cl)c1 [Compound 75]	< 5.00	< 4.00
Cc1ccc(C(=O)N(Cc2cccnc2)Cc2cc(Cl)cc(Cl)c2)c(Br)c1 [Compound 76]	< 5.00	< 4.00
O=C(c1ccc(Oc2ccc(Br)cc2)cc1)N(Cc1cccnc1)Cc1cc(Cl)cc(Cl)c1 [Compound 77]	< 5.00	< 4.00
Cc1cc(C(=O)N(Cc2cccnc2)Cc2cc(Cl)cc(Cl)c2)ccc1Br [Compound 78]	< 5.00	< 4.00
O=C(/C=C/c1ccco1)N(Cc1cccnc1)Cc1ccc(Cl)cc1Cl [Compound 79]	< 5.00	< 4.00
COc1cc(C(=O)N(Cc2cccnc2)Cc2ccc(Cl)cc2Cl)ccc1F [Compound 80]	< 5.00	< 4.00
O=C(C1CC1)N(Cc1cccnc1)Cc1ccc(Cl)cc1Cl [Compound 81]	< 5.00	< 4.00
CC(C)(C)c1ccc(C(=O)N(Cc2cccnc2)Cc2ccc(Cl)cc2Cl)cc1 [Compound 82]	< 5.00	< 4.00
